Reference: patent publication US8557840B2, “Herbicidal compounds” (Syngenta Limited, priority 2008, dated 2013)

Assays:
Assay type in all cases: in vivo
Nasturtium officinale = test: Herbicidal action, post-emergence, seed trays in climatic chamber (Example B1); details: 1000 g/ha, evaluated after 9 days, 10=total damage to plant, 0=no damage to plant
Experimental: (§1) Seeds of a variety of test species were sown in sterilised standard soil in seed trays each having 96 cells. […] The plants were grown in the climatic chamber after application at (24/19° C., day/night; 13 hours light; 50-60% humidity) and watered twice daily. After 9 days until the test was evaluated (10=total damage to plant, 0=no damage to plant)

Amaranthus retroflexus = test: as above; details: 1000 g/ha, evaluated after 9 days, 10=total damage to plant, 0=no damage to plant
Experimental: as §1

Stellaria media = test: as above; details: 1000 g/ha, evaluated after 9 days, 10=total damage to plant, 0=no damage to plant
Experimental: as §1

Solanum nigrum = test: as above; details: 1000 g/ha, evaluated after 9 days, 10=total damage to plant, 0=no damage to plant
Experimental: as §1

test plants [1] = test: Herbicidal action, post-emergence (Example B2), all test plants, result in words; details: same protocol as Example B2, post-emergence
Experimental: Seeds of a variety of test species were sown in standard soil in pots. After 8 days cultivation (post-emergence) under controlled conditions in a glasshouse (at 24/16° C., day/night; 14 hours light; 65% humidity), the plants were sprayed with an aqueous spray solution derived from the formulation of the technical active ingredient in acetone/water (50:50) solution containing 0.5% Tween 20 (polyoxyethelyene sorbitan monolaurate, CAS RN 9005-64-5). The test plants were then grown in a glasshouse under controlled conditions in a glasshouse (at 24/16° C., day/night; 14 hours light; 65% humidity) and watered twice daily. After 13 days, the test was evaluated (10=total damage to plant; 0=no damage to plant).

test plants [2] = test: Herbicidal action, post-emergence (Example B1), all test plants, result in words; details: same protocol as Example B1, post-emergence
Experimental: as §1

Structure (SMILES) | NAAOF damage to plant (Nasturtium officinale) | AMARE damage to plant (Amaranthus retroflexus) | STEME damage to plant (Stellaria media) | SOLNI damage to plant (Solanum nigrum) | damage to the test plants (test plants [1]) | damage to the test plants (test plants [2])
O=c1[nH]c2cccnc2c(O)c1-c1ccc(Cl)cc1Cl [A1] | 2 | 0 | 0 | 0 | – | –
O=c1[nH]c2cccnc2c(O)c1-c1ccccc1OC(F)(F)F [A2] | 0 | 0 | 3 | 0 | – | –
Cn1c(=O)c(-c2c(F)ccc(F)c2Cl)c(O)c2ncccc21 [A3] | 4 | 6 | 3 | 3 | – | –
CC(C)C(=O)Oc1c(-c2c(F)ccc(F)c2Cl)c(=O)n(C)c2cccnc12 [A4] | 6 | 5 | 4 | 4 | – | –
Cn1c(=O)c(-c2c(F)ccc(F)c2Cl)c(OC(=O)C(C)(C)C)c2ncccc21 [A5] | 3 | 0 | 0 | 7 | – | –
CCc1cc(C)cc(CC)c1-c1c(OC(=O)C(C)C)c2ncccc2n(C)c1=O [A6] | 6 | 3 | 8 | 6 | – | –
O=c1[nH]c2cccnc2c(O)c1-c1cccnc1 [A7] | 2 | 0 | 6 | 0 | – | –
CCn1c(=O)c(-c2c(F)ccc(F)c2Cl)c(OC(=O)C(C)(C)C)c2cnccc21 [B1, 2,2-dimethyl-propionic acid 3-(2-chloro-3,6-difluoro-phenyl)-1-ethyl-2-oxo-1,2-dihydro-[1,6]naphthyridin-4-yl ester] | – | – | – | – | little or no damage | –
Cc1cc2c(c(Cl)n1)c(OC(=O)C(C)(C)C)c(-c1c(F)ccc(F)c1Cl)c(=O)n2C [B5] | – | – | – | – | little or no damage | –
Cn1c(=O)c(-c2c(F)ccc(F)c2Cl)c(O)c2cccnc21 [D5] | 6 | 7 | 7 | 0 | – | –
CCc1cc(C)cc(CC)c1-c1c(OC(=O)C(C)C)c2cccnc2n(C)c1=O [D6, isobutyric acid 3-(2,6-diethyl-4-methyl-phenyl)-1-methyl-2-oxo-1,2-dihydro-[1,8]naphthyridin-4-yl ester] | 0 | 0 | 2 | 0 | – | –
CC(C)C(=O)Oc1c(-c2c(F)ccc(F)c2Cl)c(=O)n(C)c2ncccc12 [D7] | 0 | 6 | 3 | 0 | – | –
CCc1cc(C)cc(CC)c1-c1c(OC(=O)C(C)(C)C)c2cccnc2n(C)c1=O [D8] | 3 | 0 | 2 | 0 | – | –
Cn1c(=O)c(-c2c(F)ccc(F)c2Cl)c(OC(=O)C(C)(C)C)c2cccnc21 [D9] | 2 | 3 | 2 | 0 | – | –
Cn1c(=O)c(-c2c(F)ccc(F)c2Cl)c(OC(=O)C(C)(C)C)c2cc(Br)cnc21 [D13, 2,2-dimethyl-propionic acid 6-bromo-3-(2-chloro-3,6-difluoro-phenyl)-1-methyl-2-oxo-1,2-dihydro-[1,8]naphthyridin-4-yl ester] | – | – | – | – | little or no damage | –
Cc1cc(Cl)c2c(OC(=O)C(C)(C)C)c(-c3c(F)ccc(F)c3Cl)c(=O)n(C)c2n1 [D19] | – | – | – | – | little or no damage | –
CCc1cc(C)cc(CC)c1-c1c(O)c2cccnc2n(C)c1=O [D20, 3-(2,6-diethyl-4-methyl-phenyl)-4-hydroxy-1-methyl-1H-[1,8]naphthyridin-2-one] | 5 | 0 | 5 | 0 | – | –
O=c1[nH]c2ncc(Br)cc2c(O)c1-c1c(F)cccc1F [D27] | – | – | – | – | – | little or no damage
O=c1[nH]c2ncc(Br)cc2c(O)c1-c1c(F)cc(F)cc1F [D28] | – | – | – | – | – | little or no damage
CC(C)(C)C(=O)Oc1c(-c2c(F)ccc(F)c2Cl)c(=O)[nH]c2ncncc12 [E1] | – | – | – | – | little or no damage | –
O=c1[nH]c2nncnc2c(O)c1-c1c(F)ccc(F)c1Cl [E4] | 0 | 2 | 0 | 4 | – | –
CC(=O)Oc1c(-c2c(F)ccc(F)c2Cl)c(=O)[nH]c2nncnc12 [E5] | – | – | – | – | – | little or no damage
O=c1[nH]c2nncnc2c(O)c1-c1c(F)cccc1Cl [E7] | – | – | – | – | – | little or no damage
O=c1[nH]c2nnccc2c(O)c1-c1c(F)cccc1Cl [E8] | – | – | – | – | – | little or no damage
O=c1[nH]c2ncncc2c(O)c1-c1c(F)cc(F)cc1F [E10] | – | – | – | – | – | little or no damage
O=c1[nH]c2nncnc2c(O)c1-c1c(F)cc(F)cc1F [E11] | – | – | – | – | – | little or no damage
O=c1[nH]c2cnncc2c(O)c1-c1c(F)cc(F)cc1F [E13] | – | – | – | – | – | little or no damage
